Measured values taken from patent publication US10654834B2 (Venenum Biodesign, LLC, priority 2016, dated 2020).
pEC50: −log10 of the molar value.

How the values were obtained:
[1] = Pharmacokinetic profile in mice after oral gavage; format: in vivo, mouse; details: mouse; fasted male Hilltop mice, 10 mg/kg oral gavage, plasma; read-out: Cmax
Outline: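 Fasted 8-week male Hilltop mice given 10 mg/kg orally in 20% PEG400/80% 0.5% CMC + 0.25% Tween-80. EDTA plasma sampled 0-4 h, measured by LC-MS/MS (MRM, positive ion); Cmax and AUC derived non-compartmentally, values being means of three mice.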

mouse TGR5 receptor = target: T1, mouse TGR5 receptor (Mus musculus, UniProt Q80SS6); experiment: Mouse TGR5 HTRF cAMP production assay (HEK293-EBNA cells, Cisbio cAMP HiRange kit); format: cell-based; details: HEK293-EBNA cells overexpressing mouse TGR5, HTRF cAMP assay
T1 construct: host or cells: HEK293-EBNA (293 c18, ATCC CRL10852)
T1 sequence (Q80SS6 1-329): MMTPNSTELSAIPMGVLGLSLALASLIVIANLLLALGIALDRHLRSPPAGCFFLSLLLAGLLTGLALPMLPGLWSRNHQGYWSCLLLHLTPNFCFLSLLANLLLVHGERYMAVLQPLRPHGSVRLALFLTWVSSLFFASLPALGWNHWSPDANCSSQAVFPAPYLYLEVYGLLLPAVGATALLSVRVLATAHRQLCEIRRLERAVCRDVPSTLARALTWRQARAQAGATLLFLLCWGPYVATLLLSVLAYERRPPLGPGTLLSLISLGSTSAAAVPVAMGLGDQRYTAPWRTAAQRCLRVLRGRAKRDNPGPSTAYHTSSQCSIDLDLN
Outline: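 HEK293-EBNA cells stably expressing mouse TGR5 (episomal vector) were suspended in serum-free DMEM with 500 μM IBMX and exposed to 12-point half-log compound dilutions for 1 h at room temperature. cAMP was detected by HTRF (d2-cAMP/anti-cAMP cryptate, 1 h, room temperature), giving EC50 from duplicates.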

SMILES | Cmax [1] | pEC50 (mouse TGR5 receptor)
COc1cc(C(F)(F)F)ccc1CCNC(=O)[C@@H]1CCCN1c1cc(N2CCC(CCCC(=O)NCCS(=O)(=O)O)CC2)nc(C(F)(F)F)n1 [Compound 57, (S)-2-(4-(1-(6-(2-((2-methoxy-4-(trifluoromethyl)phenethyl)carbamoyl)-pyrrolidin-1-yl)-2-(trifluoromethyl)-pyrimidin-4-yl)piperidin-4-yl)butanamido)ethanesulfonic acid] | 13 ng/mL | > 7.00
N#Cc1ccc(CCNC(=O)[C@@H]2CCCN2c2cc(N3CCC(CCNS(=O)(=O)CCNC(=O)[C@@H](N)CS(=O)(=O)O)CC3)nc(C(F)(F)F)n2)cc1 [Compound 125, (R)-2-amino-3-((2-(N-(2-(1-(6-((S)-2-((4-cyanophenethyl)carbamoyl)-pyrrolidin-1-yl)-2-(trifluoromethyl)-pyrimidin-4-yl)piperidin-4-yl)ethyl)sulfamoyl)ethyl)amino)-3-oxopropane-1-sulfonic acid] | 0.14 ng/mL | > 7.00
N#Cc1ccc(CCNC(=O)[C@@H]2CCN2c2cc(N3CCC(CCNC(=O)NCCOCCNC(=O)NCCC(=O)O)CC3)nc(C(F)(F)F)n2)cc1 [Compound 360, (S)-1-(1-(6-(2-((4-cyanophenethyl)carbamoyl)azetidin-1-yl)-2-(trifluoromethyl)pyrimidin-4-yl)piperidin-4-yl)-4,12-dioxo-8-oxa-3,5,11,13-tetraazahexadecan-16-oic acid] | 0.5 ng/mL | > 7.00
N#Cc1ccc(CCNC(=O)[C@@H]2CCCN2c2cc(N3CCC(CCNc4c(NCCS(=O)(=O)O)c(=O)c4=O)CC3)nc(C(F)(F)F)n2)cc1 [Compound 367, (S)-2-((2-((2-(1-(6-(2-((4-cyanophenethyl)carbamoyl)pyrrolidin-1-yl)-2-(trifluoromethyl)pyrimidin-4-yl)piperidin-4-yl)ethyl)amino)-3,4-dioxocyclobut-1-en-1-yl)amino)ethanesulfonic acid] | 1.5 ng/mL | > 7.00
N#Cc1ccc(CCNC(=O)[C@@H]2CCCN2c2cc(N3CCC(CCCC(=O)NCS(=O)(=O)O)CC3)cc(C(F)(F)F)n2)cc1 [Compound 198, (S)-(4-(1-(2-(2-((4-cyanophenethyl)carbamoyl)pyrrolidin-1-yl)-6-(trifluoromethyl)pyridin-4-yl)piperidin-4-yl)butanamido)methanesulfonic acid] | 6.8 ng/mL | > 7.00
CS(=O)(=O)NCCOCCNC(=O)NCCC1CCN(c2cc(N3CC[C@H]3C(=O)NCCc3ccc(C#N)cc3)nc(C(F)(F)F)n2)CC1 [Compound 292, (S)-N-(4-cyanophenethyl)-1-(6-(4-(2-(3-(2-(2-(methylsulfonylamino)-ethoxy)ethyl)ureido)ethyl)piperidin-1-yl)-2-(trifluoromethyl)pyrimidin-4-yl)azetidine-2-carboxamide] | 1.3 ng/mL | > 7.00
N#Cc1ccc(CCNC(=O)[C@@H]2CCCN2c2cc(N3CCC(CCNC(=O)[C@@H](N)CS(=O)(=O)O)CC3)nc(C(F)(F)F)n2)cc1 [Compound 123, (R)-2-amino-3-((2-(1-(6-((S)-2-((4-cyanophenethyl)carbamoyl)pyrrolidin-1-yl)-2-(trifluoromethyl)pyrimidin-4-yl)piperidin-4-yl)ethyl)amino)-3-oxopropane-1-sulfonic acid] | 1.4 ng/mL | > 7.00
N#CCCN1CCN(c2cc(N3CCC[C@H]3C(=O)NCCc3ccc(C#N)cc3)nc(C(F)(F)F)n2)CC1 [Compound 32] | 1350 ng/mL | > 7.00
N=C(N)N[C@@H](CCC(=O)NCCCC1CCN(c2cc(N3CCC[C@H]3C(=O)NCCc3ccc(C(F)(F)F)cc3)nc(C(F)(F)F)n2)CC1)C(=O)O [Compound 133, (S)-2-guanidino-5-oxo-5-((3-(1-(2-(trifluoromethyl)-6-((S)-2-((4-(trifluoromethyl)phenethyl)carbamoyl)pyrrolidin-1-yl)pyrimidin-4-yl)piperidin-4-yl)propyl)amino)pentanoic acid] | 4.1 ng/mL | > 7.00
N#Cc1ccc(CCNC(=O)[C@@H]2CCCN2c2cc(N3CCC(CCNC(=O)NCCS(=O)(=O)NCC(=O)O)CC3)nc(C(F)(F)F)n2)cc1 [Compound 107] | 0.4 ng/mL | > 7.00
O=C(O)CC[C@@H](NC(=O)CCCC1CCN(c2cc(N3CC[C@H]3C(=O)NCCc3ccc(C(F)(F)F)cc3)nc(C(F)(F)F)n2)CC1)C(=O)O [Compound 294, (R)-2-(4-(1-(2-(trifluoromethyl)-6-((S)-2-((4-(trifluoromethyl)-phenethyl)carbamoyl)azetidin-1-yl)pyrimidin-4-yl)piperidin-4-yl)butanamido)pentanedioic acid] | 1.7 ng/mL | > 7.00
N#Cc1ccc(CCNC(=O)[C@@H]2CCN2c2cc(N3CCC(CCNC(=O)NCCNC(=N)N)CC3)nc(C(F)(F)F)n2)cc1 [Compound 286, (S)-N-(4-cyanophenethyl)-1-(6-(4-(2-(3-(2-guanidinoethyl)-ureido)ethyl)piperidin-1-yl)-2-(trifluoromethyl)pyrimidin-4-yl)azetidine-2-carboxamide] | 5.2 ng/mL | > 7.00

More lines, now with the values ahead:

Cmax [1] | pEC50 (mouse TGR5 receptor) | SMILES
36 ng/mL | > 7.00 | N#Cc1ccc(CCNC(=O)[C@@H]2CCN2c2cc(N3CCC(CCCC(=O)NCP(=O)(O)O)CC3)nc(C(F)(F)F)n2)cc1 [Compound 362, (S)-((4-(1-(6-(2-((4-cyanophenethyl)carbamoyl)azetidin-1-yl)-2-(trifluoromethyl)pyrimidin-4-yl)piperidin-4-yl)butanamido)methyl)phosphonic acid]
105 ng/mL | > 7.00 | N#Cc1ccc(CCNC(=O)[C@@H]2CCCN2c2cc(N3CCC(CCNC(=O)NCP(=O)(O)O)CC3)nc(C(F)(F)F)n2)cc1 [Compound 372, (S)-((3-(2-(1-(6-(2-((4-cyanophenethyl)carbamoyl)pyrrolidin-1-yl)-2-(trifluoromethyl)pyrimidin-4-yl)piperidin-4-yl)ethyl)ureido)methyl)phosphonic acid]
55 ng/mL | > 7.00 | N#Cc1ccc(CCNC(=O)[C@@H]2CCCN2c2cc(N3CCC(CCCC(=O)O)CC3)nc(C(F)(F)F)n2)cc1 [Compound 29]
44 ng/mL | > 7.00 | N#Cc1ccc(CCNC(=O)[C@@H]2CCN2c2cc(N3CCC(CCO)CC3)nc(C(F)(F)F)n2)cc1 [Compound 223, (S)-N-(4-cyanophenethyl)-1-(6-(4-(2-hydroxyethyl)piperidin-1-yl)-2-(trifluoromethyl)pyrimidin-4-yl)azetidine-2-carboxamide]
8.9 ng/mL | > 7.00 | N#Cc1ccc(CCNC(=O)[C@@H]2CCCN2c2cc(N3CCC(CCCC(=O)NCCC(=O)O)CC3)nc(C(F)(F)F)n2)cc1 [Compound 104, (S)-3-(4-(1-(6-(2-((4-cyanophenethyl)carbamoyl)pyrrolidin-1-yl)-2-(trifluoromethyl)pyrimidin-4-yl)-piperidin-4-yl)butanamido)-propanoic acid]
14 ng/mL | > 7.00 | N#Cc1ccc(CCNC(=O)[C@@H]2CCCN2c2cc(N3CCC(CCC(=O)NCCS(=O)(=O)O)CC3)nc(C(F)(F)F)n2)cc1 [Compound 56, (S)-2-(3-(1-(6-(2-((4-cyanophenethyl)carbamoyl)pyrrolidin-1-yl)-2-(trifluoromethyl)pyrimidin-4-yl)piperidin-4-yl)propanamido)ethanesulfonic acid]
